Assay [1] concerns Smad2/Smad3 phosphorylation. Kind of assay: Phospho-Smad2/3 Inhibition Assay (western blot), Panc-1. The format is cell-based, human. The settings on record: at 10 μM, Panc-1 pancreatic cancer cell line; starred symbols = activation. The method in brief:
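Panc-1 cells (KRas G12D), starved overnight in 0.5% FBS, treated 3 h at 37° C with compound at 10 μM final (0.3% DMSO) or serial dilutions for IC50, then stimulated with 10 ng/ml TGF-b1 for 1 h. Phospho-Smad2 (Ser465/467) and phospho-Smad3 (Ser423/425) detected by western blot.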
In general terms: In western blotting, separated proteins are transferred to a membrane and probed.

The test system of a further assay is IL6. Kind of assay: IL-6 Quantification Assay (ELISA), LPS-stimulated RAW 264.7. Also noted: inhibition: dose or concentration left out as unconfirmed. The settings on record: Mus musculus, RAW264.7; read-out: IL-6: % inh. The format is cell-based. Background: ELISA stands for enzyme-linked immunosorbent assay.
The next assay has as its system KRas G12C mutant. Kind of assay: Ras GTP Binding Domain Inhibition Assay (Ras Superfamily Assay). The settings on record: 20 μM compound; for KRas G12C mutant + SOS: % inh.: with SOS; for KRas G12C mutant: % inh.: without SOS. The method in brief:
(§1)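 Ni-plate capture of His-tagged protein (10-30 μg/mL, o/n 4° C); cpd 20 μM or dilution series, 1% DMSO, 3 h RT ± Sos 556-1049 last h; 100 nM Cy-labelled GTP 45 min RT; 3× wash; fluorescence read.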

For a further assay, the system named is KRas Q61H mutant. The assay is described as above. The settings on record: 20 μM compound; for KRas Q61H mutant + SOS: % inh.: with SOS; for KRas Q61H mutant: % inh.: without SOS. Put shortly: as §1
Another assay has as its target T1, Rac-1 (Homo sapiens, UniProt P63000).
T1 construct: made in house
The description is as above. The settings on record: read-out: Rac-1: % inh. The method in brief: as §1

`COc1cnc(Nc2nc(-c3nccn3C)nn3cc(-c4ccn(C(C)C)n4)c(C)c23)nc1` [Compound 56, 6-(1-Isopropyl-1H-pyrazol-3-yl)-N-(5-methoxypyrimidin-2-yl)-5-methyl-2-(1-methyl-1H-imidazol-2-yl)pyrrolo[2,1-f][1,2,4]triazin-4-amine]: the “% inh of Smad2/3 phosphorylation in Panc-1” value (shortened to “% inh … in Panc-1”) in assay [1] is “D* (D* = 76-100% activation)”. Further, in the assay on IL6, the inhibition lay in the range of 25 to 49%. Further, in the assay with KRas G12C mutant, the “KRas G12C mutant + SOS: % inh.” value is “A (A = 1-25% inhibition)” and the “KRas G12C mutant: % inh.” value was “C (C = 50-75% inhibition)”. In the assay with KRas Q61H mutant, the “KRas Q61H mutant + SOS: % inh.” value is listed as “D (D = 76-100% inhibition)” and the “KRas Q61H mutant: % inh.” value is given as “C (C = 50-75% inhibition)”. On Rac-1, the inhibition at 20 µM lay in the range of 50 to 75%.

Regarding `COCCO[C@H]1C[C@H](Nc2nc(-c3nccn3C)nn3cc(-c4cccc(OC)c4F)c(-c4ccccc4)c23)C1` [Compound 44, 6-(2-Fluoro-3-methoxyphenyl)-N-((1r,3r)-3-(2-methoxyethoxy)cyclobutyl)-2-(1-methyl-1H-imidazol-2-yl)-5-phenylpyrrolo[2,1-f][1,2,4]triazin-4-amine], in assay [1], the “% inh … in Panc-1” value is listed as “D (D = 76-100% inhibition)”. The inhibition in the assay with IL6 was 25 to 49%. Further, in the assay on KRas G12C mutant, the “KRas G12C mutant + SOS: % inh.” value was “B (B = 26-49% inhibition)” and the “KRas G12C mutant: % inh.” value is 0 (0 = 0% inhibition). For the same compound, in the assay with KRas Q61H mutant, the “KRas Q61H mutant + SOS: % inh.” value was “D (D = 76-100% inhibition)” and the “KRas Q61H mutant: % inh.” value is recorded as “D (D = 76-100% inhibition)”. Moreover, the inhibition at 20 µM at Rac-1 is 26 to 49%.

For the compound `COc1cccc(-c2cn3nc(-c4nccn4C)nc(N[C@H]4C[C@H](OC)C4)c3c2-c2ccccc2)c1F` [Compound 42, 6-(2-Fluoro-3-methoxyphenyl)-N-((1r,3r)-3-methoxycyclobutyl)-2-(1-methyl-1H-imidazol-2-yl)-5-phenylpyrrolo[2,1-f][1,2,4]triazin-4-amine], the “% inh … in Panc-1” value in assay [1] is 0 (0 = 0% inhibition). In the assay with IL6, the inhibition was in the range of 75 to 100%. Besides, in the assay on KRas G12C mutant, the “KRas G12C mutant + SOS: % inh.” value was 0 (0 = 0% inhibition) and the “KRas G12C mutant: % inh.” value is recorded as 0 (0 = 0% inhibition). In the assay with KRas Q61H mutant, the “KRas Q61H mutant + SOS: % inh.” value is recorded as “B (B = 26-49% inhibition)” and the “KRas Q61H mutant: % inh.” value was “B (B = 26-49% inhibition)”. Besides, the inhibition at 20 µM on Rac-1 was 0%.

Regarding `COC[C@@H]1CC[C@@H]1CNc1nc(-c2ccccn2)nn2cc(-c3ccn(C(C)C)n3)c(-c3ccccc3)c12` (racemic) [Compound 26, rac 6-(1-Isopropyl-1H-pyrazol-3-yl)-N-(((1S,2R)-2-(methoxymethyl)cyclobutyl)methyl)-5-phenyl-2-(pyridin-2-yl)pyrrolo[2,1-f][1,2,4]triazin-4-amine], the “% inh … in Panc-1” value in assay [1] is “C (C = 46-75% inhibition)”. The inhibition in the assay on IL6 was 50 to 74%. Moreover, in the assay with KRas G12C mutant, the “KRas G12C mutant + SOS: % inh.” value is recorded as “A (A = 1-25% inhibition)” and the “KRas G12C mutant: % inh.” value was 0 (0 = 0% inhibition). Besides, in the assay with KRas Q61H mutant, the “KRas Q61H mutant + SOS: % inh.” value is listed as “A (A = 1-25% inhibition)” and the “KRas Q61H mutant: % inh.” value is listed as “A (A = 1-25% inhibition)”. For the same compound, at Rac-1, the inhibition at 20 µM is 0%.

With `Cc1c(-c2ccn(C(C)C)n2)cn2nc(-c3nccn3C)nc(Nc3nnc(C4CC4)o3)c12` [Compound 67, 5-Cyclopropyl-N-(6-(1-isopropyl-1H-pyrazol-3-yl)-5-methyl-2-(1-methyl-1H-imidazol-2-yl)pyrrolo[2,1-f][1,2,4]triazin-4-yl)-1,3,4-oxadiazol-2-amine], the “% inh … in Panc-1” value in assay [1] is 0 (0 = 0% inhibition). Besides, the inhibition with IL6 lay within 75 to 100%. Also, in the assay with KRas G12C mutant, the “KRas G12C mutant + SOS: % inh.” value is “B (B = 26-49% inhibition)” and the “KRas G12C mutant: % inh.” value is reported as “C (C = 50-75% inhibition)”. Besides, in the assay with KRas Q61H mutant, the “KRas Q61H mutant + SOS: % inh.” value was “C (C = 50-75% inhibition)” and the “KRas Q61H mutant: % inh.” value is reported as “C (C = 50-75% inhibition)”. The inhibition at 20 µM at Rac-1 is 50 to 75%.

Values taken from US12459951B2, “Compounds that interact with RAS superfamily proteins for treatment of cancers, inflammatory diseases, rasopathies, and fibrotic disease” (SHY Therapeutics, LLC, priority 2022, dated 2025).
